Test results as given in PMC6990405, “Synthesis and Structure–Activity relationship of 1-(5-isoquinolinesulfonyl)piperazine analogues as inhibitors of Mycobacterium tuberculosis IMPDH” (European Journal of Medicinal Chemistry, 2019).
In brackets after ≈: the same amount, converted by molar mass. Where two headings read alike, the source gives them in different places.

Columns and labels:
[1] = test system: M. tuberculosis; parameters: method as in PMID 20934382; settings: cited from earlier work
[2] = molecular target: Mycobacterium thermoresistible (Mth) IMPDH ΔCBS (Mycobacterium thermoresistible) (UniProt G7CNL4); assay: crystal structure
[3] = test system: wild-type M. tuberculosis strain H37Rv; assay: microbe, parasite or virus in culture; format: cell-based; settings: wild-type M. tuberculosis H37Rv, read-out: MIC90 against WT
[4] = molecular target: T1, Mtb IMPDH (Mycobacterium tuberculosis, UniProt P9WKI7); assay: IMPDH biochemical assay (inhibition of Mtb GuaB2); settings: Mtb IMPDH (GuaB2) enzyme
T1 construct: made in house

[5] = Mycobacterium tuberculosis, H37RV

Molecule | MIC against M. tuberculosis [1] | stoichiometry N [2] | MIC90 [3, 5] | IC50 [4] | MIC90 [3]
O=S(=O)(c1cccc2cnccc12)N1CCNCC1 [5-(piperazin-1-ylsulfonyl)isoquinoline] | no MIC |  |  |  | 
Mycobacterium thermoresistible (Mth) IMPDH ΔCBS (from UniProt G7CNL4 1-513) (enzyme) |  | 4 |  |  | 
O=C(C1CCCCCC1)N1CCN(S(=O)(=O)c2cccc3cnccc23)CC1 [Compound 14, Cycloheptyl[4-(isoquinoline-5-sulfonyl)piperazin-1-yl]methanone] |  |  | 31.2 µM (≈ 12.5 µg/mL) | 830 ± 40 nM | 
O=C(Cc1ccc([N+](=O)[O-])cc1)N1CCN(S(=O)(=O)c2cccc3cnccc23)CC1 [Compound 30, 1-(4-(isoquinolin-5-ylsulfonyl)piperazin-1-yl)-2-(4-nitrophenyl)ethan-1-one] |  |  | 250 µM (≈ 110 µg/mL) | 5300 ± 200 nM | 
O=C(Cc1ccc(F)cc1)N1CCN(S(=O)(=O)c2cccc3cnccc23)CC1 [Compound 29, 2-(4-fluorophenyl)-1-(4-(isoquinolin-5-ylsulfonyl)piperazin-1-yl)ethan-1-one] |  |  | 25 µM (≈ 10.3 µg/mL) | 680 ± 50 nM | 
O=C(Nc1ccc(Cl)c(C(F)(F)F)c1)N1CCN(S(=O)(=O)c2cccc3cnccc23)CC1 [Compound 34, N-(4-chloro-3-(trifluoromethyl)phenyl)-4-(isoquinolin-5-ylsulfonyl)piperazine-1-carboxamide] |  |  | 25 µM (≈ 12.5 µg/mL) | 160 ± 100 nM | 
O=C(Cc1cccc(O)c1)N1CCN(S(=O)(=O)c2cccc3cnccc23)CC1 [Compound 25, 2-(3-hydroxyphenyl)-1-[4-(isoquinoline-5-sulfonyl)piperazin-1-yl]ethan-1-one] |  |  | 125 µM (≈ 51.4 µg/mL) | 4000 ± 200 nM | 
O=C(C1CCCCC1)N1CCN(S(=O)(=O)c2cccc3ccccc23)CC1 [Compound 7, Cyclohexyl[4-(naphthalene-1-sulfonyl)piperazin-1-yl]methanone] |  |  | > 100 µM | 3000 ± 100 nM | 
CC1CCCCC1C(=O)N1CCN(S(=O)(=O)c2cccc3cnccc23)CC1 (centres unmarked) [Compound 13, [4-(isoquinoline-5-sulfonyl)piperazin-1-yl](2-methylcyclohexyl)methanone] |  |  | 31.2 µM (≈ 12.5 µg/mL) | 84 nM | 
CC(C)(C)C(=O)N1CCN(S(=O)(=O)c2cccc3cnccc23)CC1 [Compound 11, 1-[4-(isoquinoline-5-sulfonyl)piperazin-1-yl]-2,2-dimethylpropan-1-one] |  |  | 100 µM (≈ 36.1 µg/mL) | 2800 ± 200 nM | 
O=C(NCc1ccccc1)N1CCN(S(=O)(=O)c2cccc3cnccc23)CC1 [Compound 46, N-benzyl-4-(isoquinolin-5-ylsulfonyl)piperazine-1-carboxamide] |  |  | 3.1 µM (≈ 1.27 µg/mL) | 350 ± 30 nM | 
O=C(NC1CCN(S(=O)(=O)c2cccc3cnccc23)CC1)C1CCCCC1 [Compound 4, N-[1-(isoquinoline-5-sulfonyl)piperidin-4-yl]cyclohexanecarboxamide] |  |  | > 100 µM | 9700 ± 300 nM | 
O=C(Nc1ccc2c(c1)OCO2)N1CCC(NS(=O)(=O)c2cccc3cnccc23)CC1 [Compound 43, 4-[(isoquinoline-5-sulfonyl)amino]-N-(2H-1,3-benzodioxol-5-yl)piperidine-1-carboxamide] |  |  | > 100 µM | > 100000 nM | 
Cc1ccc(NC(=O)N2CCN(S(=O)(=O)c3cccc4cnccc34)CC2)c([N+](=O)[O-])c1 [Compound 39, 4-(isoquinolin-5-ylsulfonyl)-N-(4-methyl-2-nitrophenyl)piperazine-1-carboxamide] |  |  |  | 600 ± 30 nM | 25 µM (≈ 11.4 µg/mL)
